Laboratory results: US6379659B1, “Keratin fiber strengthening agent and method for strengthening keratin fiber” (Takasago International Corporation, priority 1997, dated 2002)

How the values were obtained:
[1] = Breaking strength test on solvent-damaged human hair (Example 31); conditions: damaged (chloroform/ethanol-treated) hair of person soaked in treating agent; 25° C., 40% RH; average n = 10
Protocol: Hair samples 1 to 5 were prepared and subjected to a destructive test under the following conditions by the use of Shimadzu Autograph AGS-500B (manufactured by Shimadzu Corp.) to measure a breaking strength.
Hair: A hair having a length of about 15 cm and a diameter of about 0.08 to 0.1 mm, clamped 5.7 cm from each end.
(§1) Pulling speed: 5.0 cm/min
(§2) Atmosphere: 25° C., 40% RH
(§3) Healthy hair, cut off from a person at a beauty parlor, which had not been permed nor bleached, was used.
The healthy hair (untreated hair, sample 1) weighing 50 g was soaked in 450 ml of a 2:1 (by volume) mixture of chloroform and ethanol and subjected to ultrasonication for 15 minutes to remove lipids. The sample was washed with 250 ml of a 2:1 (by volume) mixture of chloroform and ethanol and then with 100 ml of acetone and dried to prepare solvent-treated hair as damaged hair (sample 2).
The solvent-treated hair weighing 40 g was soaked in a 5-fold weight of each of the blank treating agent of Comparative Example 1, the racemate-containing treating agent of Comparative Example 2, and the keratin fiber strengthening agent of Example 1 and subjected to ultrasonication for 15 minutes, followed by washing with five 1000 ml portions of water. The treated hair was dried under reduced pressure at 60° C. 2 hours and then under reduced pressure for 3 hours to prepare samples 3 to 5, respectively.

[2] = Young's modulus, breaking strength, elongation and toughness of solvent-damaged human hair (Examples 33, 35); conditions: damaged hair of person soaked in treating agent; n=10
Protocol: as §3
Healthy hair (untreated hair, sample 6) was treated with a chloroform-ethanol mixed solvent in the same manner as in Example 31 to prepare sample 7. Samples 8 to 10 were prepared in the same manner as for samples 3 to 5 of Example 31. The breaking strength of each sample was measured by means of Shimadzu Autograph. A Young's modulus was also measured.

[3] = Breaking strength test on dog hair (Example 36)
Protocol: Dog hair samples 11 to 15 were prepared as follows and subjected to a destructive test under the following conditions by the use of Shimadzu Autograph AGS-SOOB (manufactured by Shimadzu Corp.) to measure a breaking strength and a Young's modulus. The breaking strength and Young's modulus data obtained are also graphically represented in FIGS. 4 and 5, respectively.
Dog Hair: A dog hair having a length of about 10 to 15 cm and a diameter of about 0.08 to 0.1 mm, clamped 2 cm from each end.
as §1, §2
Healthy dog hairs collected from around the neck of a 4-year-old male Shetland sheepdog were used. The untreated hair as collected (sample 11) weighing 50 g was treated in the same manner as in Example 31 to prepare samples 12 to 15.

[4] = Breaking strength test, elongation and toughness of solvent-damaged human hair (Example 38)
Protocol: Samples (Samples 16 to 19) were prepared as described below and breaking strength test and measurement of elongation were carried out under the below-described measuring conditions by using Shimadzu Autograph AGS0599B (manufactured by Simadzu Corp). Based on the results, toughness (breaking strength×elongation) of each of Samples 16 to 19 was calculated.
Relative humidity: 40%, temperature: 25° C.
Hair employed for the test: A hair having a length of about 15 cm and a diameter of about 0.08 to 0.1 mm, clamped 5.0 cm from each end.
as §1
(b) Preparation of Samples (Samples 16 to 19)
as §3
The healthy hair (untreated hair, Sample 16) weighing 50 g was soaked in 450 ml of a 2:1 mixture of chloroform and ethanol and subjected to ultrasonication for 15 minutes to remove lipid components. The sample was then washed with 250 ml of a 2:1 mixture of chloroform and ethanol and then with 100 ml of acetone, followed by drying under reduced pressure, whereby organic-solvent-treated hair (Sample 17) was obtained.
The solvent-treated hair (Sample 17) weighing 40 g was soaked in a 5-fold weight of each of the treating agents and subjected to ultrasonication for 15 minutes. The hair was then washed five times with 1000 ml of water, followed by drying at 60° C. for 2 hours under reduced pressure and then drying for 3 hours under reduced pressure, whereby each of Samples 18 to 19 were obtained. Described specifically, Sample 18 was the hair treated with the treating agent (placebo treating agent), which had been prepared in Comparative Example 3, subsequent to the treatment with a solvent, while Sample 19 was the hair treated with the keratin fiber strengthening agent of the present invention (Compound-6-containing treating agent) which had been prepared in […].
The differences of the samples are summarized as follows.
Sample 16: Healthy hair (untreated)
Sample 17: Hair treated with the solvent
Sample 18: Hair treated with the solvent and then with the placebo treating agent prepared in Comparative Example
Sample 19: Hair treated with the solvent and then with the keratin fiber strengthening agent of the present invention (Compound-6-containing treating agent) prepared in Example 31

[5] = damaged dog hair soaked in treating agent, n = 10
[6] = solvent-treated hair of person soaked in treating agent, mean n=10

SMILES | Breaking Strength [1] [kgf] | Breaking Strength [2] [kgf] | Elongation [2] [mm] | Toughness (product of breaking strength and elongation) [2] [kgf × mm] | Breaking Strength per area ([3]; damaged dog hair soaked in treating agent) [kgf/mm^2] | Breaking Strength [3, 5] [kgf] | Young's Modulus [3, 5] [kgf/mm^2] | Improvements on breaking strength and Young's modulus, in words ([3]; not only human hair but dog hair) | Breaking strength of hair as compared with the placebo treating agent, in words ([4]; P<0.05 vs Sample 18) | Breaking Strength [4, 6] [Kgf] | Elongation [4, 6] [mm] | Toughness (breaking strength×elongation) [4, 6] [kgf·mm]
CCCCCCCCCCCCCCCCCC(=O)N[C@@H](CO)[C@H](O)CCCCCCCCCCCCCCC [Compound 1, (2S,3R)-2-octadecanoylaminooctadecane-1,3-diol] | 0.2058 | 0.2941 | 27.08 | 7.9642 | 42.55 | 0.1196 | 605.240 | significant improvements |  |  |  | 
CCCCCCCCCCCCCCC[C@@H](O)[C@H](CO)NC(=O)C(O)CCCCCCCCCCCCCC (stereo partly drawn) [Compound 6, (2S,3R)-2-(2-hydroxyhexadecanoyl)aminooctadecane-1,3-diol] |  |  |  |  |  |  |  |  | significantly increases | 0.266 | 26.02 | 6.921
